Source: patent publication US20260055108A1, “TRIAZINE COMPOUNDS AND USES THEREOF” (HUTCHMED LIMITED, priority 2022, published 2026)
Read-outs that look alike come from different tables or passages of the source.

Experiments:
[1] = biological target: Recombinant human Menin protein (2-610) / MLL polypeptide binding (Homo sapiens (Human), UniProt O00255); assay: Menin and MLL protein binding at a molecular level (fluorescence polarization method); details: inhibition of Menin / MLL polypeptide binding
Source text: Example 3: Determination of the Activity of the Compounds of the Present Invention on Menin and MLL Protein Binding at a Molecular Level (Fluorescence Polarization Method)
1. Reagents, Materials and Instruments:
• Recombinant human Menin protein (2-610): ChemPartner, CP2021020801; • MLL polypeptide (6-FAM-Ahx-SG-40): GL Biochem, 865700; • Trizma® hydrochloride buffer solution (Tris): Sigma, T2194-1 L; • NaCl: Invitrogen, AM9760G; • TCEP: Sigma, 646547; • DMSO: Sigma, D4540; • 384-well plate: Corning, 4514; • Envision: PerkinElmer.
2. Preparation of Reaction Solutions
• 1) Buffer solution: 20 mL of Tris and 4 mL of NaCl were added respectively to 376 mL of ddH2O, with pH adjusted to 7.5, and TCEP was added before testing with a dilution ratio of 1:500. • 2) 5× test compounds: the test compound was subjected to gradient dilution with the buffer solution to 5-fold the reaction concentration, so that the final concentrations of the compound were 1.000, 0.333, 0.111, 0.037, 0.012, 0.004, 0.001 and 0.0005 μM, respectively. • 3) 2.5× Menin protein reaction solution: the Menin protein was diluted to 5 nM with the buffer solution. • 4) 2.5×MLL polypeptide reaction solution: the MLL polypeptide was diluted to 5 nM with the buffer solution.
1) Binding Reaction (20 μL System)
4 μL of 5× test compound was added to each reaction well of the 384-well plate, and the corresponding volume of 10% DMSO was added to the control wells. Except the control wells, 8 μL of Menin protein reaction solution was added to each well. The reaction solution was incubated at room temperature for 30 minutes, and then 8 μL of MLL polypeptide reaction solution was added to each well. The final concentrations of DMSO in the test compound wells and control wells were all 2%. The 384-well plate was sealed and incubated at room temperature for 30 minutes in the dark.
Three control groups were set up: • a blank control group only containing a buffer solution; • a negative control group only containing MLL polypeptide reaction solution; and • a positive control group containing Menin protein reaction solution and MLL polypeptide reaction solution.
The vertical polarization S value and the horizontal polarization P value (excitation wavelength was 480 nm, and emission wavelength was 535 nm) were measured with Envision.
Corrected S is the S value of the negative control group—the S value of the blank control group
Corrected P is the P value of the negative control group—the P value of the blank control group
(§1) • calculated by using software XL-Fit™ (version 5.3) supplied by ID Business Solutions (Guildford, UK), which is an additional software to Microsoft Excel.

[2] = system: MV-4-11 cells (human acute myelogenous leukemia cell line carrying MLL-AF4 mutation); assay: Cell proliferation assay, MV-4-11 (CellTiter-Glo); format: cell-based
Experimental: Example 4 Cell Proliferation Assay
MV-4-11 (ATCC, CRL-9591), a human acute myelogenous leukemia cell line carrying MLL-AF4 mutation. Cells were cultured in an IMDM medium containing 10% heat-inactivated fetal bovine serum (HIFBS) and supplemented with 50 μM β-mercaptoethanol.
2. Reagents, Materials and Instruments:
• IMDM culture solution: GIBCO, 12440-053; • HIFBS: GIBCO, 10100-147; • β-mercaptoethanol: Sigma, M3148; • CellTiter-Glo® 2.0 assay kit (CTG): Promega, G9243; • DMSO: Sigma, D4540; • 96-well cell culture plate: Corning, 3903; • Envision: PerkinElmer.
MV-4-11 cells were resuspended in a medium, added to a 96-well plate at a density of 3000 cells/well with a volume of 100 μL/well, and cultured in a cell incubator at 5% CO2 and 37° C. for 4 hours. The test compound subjected to gradient dilution with the medium was added to a cell culture plate, and the final concentrations of the compound were 1.100, 0.367, 0.122, 0.041, 0.014, 0.005, 0.002 and 0.001 μM, respectively. The corresponding volume of DMSO diluent was added to a blank control well, and the final concentrations of DMSO in the experimental group and control group were both 0.1%. The cell plate was placed in a cell incubator at 5% CO2 and 37° C. and cultured for 3 days.
On day 0 and day 3 of the treatment, 50 μL/well CTG reagent was added to the cell plate and shaken at room temperature in the dark for 10 min, and then the chemiluminescence value of each well was measured with Envision.
[formula] • wherein: • luminescence valuetest sample: the chemiluminescence value of a cell well treated with the test compound for 3 days. • luminescence valueday 0: the chemiluminescence value of a cell well at day 0. • luminescence valuecell well: the chemiluminescence value of a cell well not treated with the compound for 3 days.
as §1

[3] = Homo sapiens, MV4-11, 72 h, MV-4-11 cells, 3 days treatment, CellTiter-Glo, read-out: GI50

Sequence of Recombinant human Menin protein (2-610) / MLL polypeptide binding (O00255 2-610): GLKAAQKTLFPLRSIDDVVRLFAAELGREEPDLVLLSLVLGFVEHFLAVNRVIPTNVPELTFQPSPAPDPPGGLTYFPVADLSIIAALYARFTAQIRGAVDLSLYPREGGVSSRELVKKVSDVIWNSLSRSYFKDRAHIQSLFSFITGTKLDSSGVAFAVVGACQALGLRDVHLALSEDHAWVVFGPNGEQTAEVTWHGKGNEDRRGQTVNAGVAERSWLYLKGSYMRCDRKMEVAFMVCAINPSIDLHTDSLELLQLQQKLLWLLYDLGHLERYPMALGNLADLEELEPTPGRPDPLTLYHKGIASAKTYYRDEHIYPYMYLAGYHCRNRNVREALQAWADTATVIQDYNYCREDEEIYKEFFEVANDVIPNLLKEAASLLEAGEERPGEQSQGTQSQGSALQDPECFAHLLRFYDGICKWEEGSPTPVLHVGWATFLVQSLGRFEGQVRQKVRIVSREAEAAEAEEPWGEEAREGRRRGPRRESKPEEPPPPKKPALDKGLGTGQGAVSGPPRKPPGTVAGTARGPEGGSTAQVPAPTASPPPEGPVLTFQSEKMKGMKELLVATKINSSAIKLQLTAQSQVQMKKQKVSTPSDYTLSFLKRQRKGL

| Structure (SMILES) | IC50 [1] [nM] | GI50 [2, 3] [nM] | GI50 ([2]; MV-4-11 cells, 3 days treatment, CellTiter-Glo, read-out: GI50) [nM] | GI50 ([2]; Homo sapiens, MV4-11, 72 h) [nM] |
| --- | --- | --- | --- | --- |
| CCN(C(=O)c1cc(F)ccc1Oc1nncnc1N1CC2(CCN(C(=O)C3CCN(c4ccccn4)CC3)CC2)C1)C(C)C [Compound 172, N-ethyl-5-fluoro-N-isopropyl-2-((5-(7-(1-(pyridin-2-yl)piperidine-4-carbonyl)-2,7-diazaspiro[3.5]nonan-2-yl)-1,2,4-triazin-6-yl)oxy)benzamide] | > 200 | 76 | – | – |
| CCN(C(=O)c1cc(F)ccc1Oc1nncnc1N1CC2(CCN(CC3CCN(c4ccnc(OC)c4)CC3)CC2)C1)C(C)C [Compound 114] | 2.3 | 3 | – | – |
| CCN(C(=O)c1cc(F)ccc1Oc1nncnc1N1CC2(CCN(Cc3ccc4c(cc(C#N)n4C4COC4)c3C)CC2)C1)C(C)C [Compound 130] | 2.7 | 9 | – | – |
| CCN(C(=O)c1cc(F)ccc1Oc1nncnc1N1CC2(CCN(Cc3ccc(-c4ccccn4)cc3)CC2)C1)C(C)C [Compound 124] | > 200 | 505 | – | – |
| CCN(C(=O)c1cc(F)ccc1Oc1nncnc1N1CC2(CCN(CC3CCN(c4ccc(C5CC5)nn4)CC3)CC2)C1)C(C)C [Compound 44] | 4.3 | 14 | – | – |
| CCN(C(=O)c1cc(F)ccc1Oc1nncnc1N1CC2(CCN(CC3CCN(c4cc(OC)c(OC)nn4)CC3)C2)C1)C(C)C [Compound 93] | 0.6 | 2 | – | – |
| CCN(C(=O)c1cc(F)ccc1Oc1nncnc1N1CCC(C2(N(C)Cc3ccc4[nH]c(C#N)cc4c3C)CC2)C1)C(C)C (stereo not drawn) [Compound 142] | 124 | 257 | – | – |
| CCN(C(=O)c1cc(F)ccc1Oc1nncnc1N1CC2(CCN(CC3CCN(c4ccc(C#N)nc4)CC3)CC2)C1)C(C)C [Compound 115] | 4.7 | 6 | – | – |
| CCN(C(=O)c1cc(F)ccc1Oc1nncnc1N1CC2(CCN(CC3CCN(C(=O)COC)CC3)CC2)C1)C(C)C [Compound 9] | 37.6 | 99 | – | – |
| CCN(C(=O)c1cc(F)ccc1Oc1nncnc1N1CC2(CCN(Cc3ccc4c(cc(C(=O)O)n4CCO)c3C)CC2)C1)C(C)C [Compound 159] | 450 | 642 | – | – |
| Cc1nc(-c2cc(F)ccc2Oc2nncnc2N2CC3(CCN(Cc4ccc5c(cc(C#N)n5CCO)c4C)CC3)C2)n(C(C)C)n1 [Compound 161] | 18.7 | 22 | – | – |
| CCN(C(=O)c1cc(F)ccc1Oc1nncnc1N1CC2(CCN(CC3CCN(C4COC4)CC3)CC2)C1)C(C)C [Compound 137, N-ethyl-5-fluoro-N-isopropyl-2-((5-(7-((1-(oxetan-3-yl)piperidin-4-yl)methyl)-2,7-diazaspiro[3.5]nonan-2-yl)-1,2,4-triazin-6-yl)oxy)benzamide] | 141 | 181 | – | – |
| CCN(C(=O)c1cc(F)ccc1Oc1nncnc1N1CC2(CCN(CC3CCN(c4ccncc4C(N)=O)CC3)CC2)C1)C(C)C [Compound 150, 4-(4-((2-(6-(2-(ethyl(isopropyl)carbamoyl)-4-fluorophenoxy)-1,2,4-triazin-5-yl)-2,7-diazaspiro[3.5]nonan-7-yl)methyl)piperidin-1-yl)nicotinamide] | 41.5 | 66 | – | – |
| CCN(C(=O)c1cc(F)ccc1Oc1nncnc1N1CC2(CCN(CC3CCN(c4ncccn4)CC3)CC2)C1)C(C)C [Compound 78] | 28.8 | 20 | – | – |
| CCN(C(=O)c1cc(F)ccc1Oc1nncnc1N1CC2(CCN(CC3CCN(c4ccc(C(F)(F)F)nn4)CC3)CC2)C1)C(C)C [Compound 38, N-ethyl-5-fluoro-N-isopropyl-2-((5-(7-((1-(6-(trifluoromethyl)pyridazin-3-yl)piperidin-4-yl)methyl)-2,7-diazaspiro[3.5]nonan-2-yl)-1,2,4-triazin-6-yl)oxy)benzamide] | 1.7 | 2 | – | – |
| CCN(C(=O)c1cc(F)ccc1Oc1nnc(C)nc1N1CC2(CCN(Cc3ccc4c(cc(C#N)n4CCO)c3C)CC2)C1)C(C)C [Compound 160] | 87.7 | 54 | – | – |
| CCNC(=O)c1cc(F)ccc1Oc1nncnc1N1CC2(CCN(CC3CCN(c4cc(OC)c(OC)nn4)CC3)CC2)C1 [Compound 179, (Z)-2-((5-(7-((1-(5,6-dimethoxypyridazin-3-yl)piperidin-4-yl)methyl)-2,7-diazaspiro[3.5]nonan-2-yl)-1,2,4-triazin-6-yl)oxy)-N-ethyl-5-fluorobenzimidic acid] | 560 | – | 155 | – |
| CCN(C(=O)c1cc(F)ccc1Oc1nncnc1N1CC2(CCN(Cc3ccc4oc(C)cc4c3)CC2)C1)C(C)C [Compound 68] | 50.2 | 71 | – | – |
| O=C(NC1CC1)N1CCC(CN2CCC3(CC2)CN(c2ncnnc2Oc2ccc(F)cc2)C3)CC1 [Compound 31] | 155 | 284 | – | – |
| COc1cc(N2CCC(CN3CCC4(CC3)CN(c3ncnnc3Oc3ccc(F)cc3C(=O)N3CCCC3)C4)CC2)nnc1OC [Compound 99] | 14.7 | 26 | – | – |
| CCN(C(=O)c1cc(F)ccc1Oc1nncnc1N1CC2(CCN(CC3CCN(C(=O)C4CC4)CC3)CC2)C1)C(C)C [Compound 1, 2-((5-(7-((1-(cyclopropanecarbonyl)piperidin-4-yl)methyl)-2,7-diazaspiro[3.5]nonan-2-yl)-1,2,4-triazin-6-yl)oxy)-N-ethyl-5-fluoro-N-isopropylbenzamide] | 13.6 | 43 | – | – |
| CCN(C(=O)c1cc(F)ccc1Oc1nncnc1N1CC2(CCN(Cc3ccc(NS(C)(=O)=O)cc3C)CC2)C1)C(C)C [Compound 23] | 23.2 | 56 | – | – |
| CCN(C(=O)c1cc(F)ccc1Oc1nncnc1N1CC2(CCN(CC3CCN(c4ccn5nccc5n4)CC3)CC2)C1)C(C)C [Compound 82] | 2.6 | 7 | – | – |
| CCN(C(=O)c1cc(F)ccc1Oc1nncnc1N1CC(C2(N(Cc3ccc4[nH]c(C#N)cc4c3C)C(C)C)CC2)C1)C(C)C [Compound 141] | 153 | 442 | – | – |
| Cc1ccc(N2CCC(CN3CCC4(CC3)CN(c3ncnnc3Oc3ccc(F)cc3-c3ccnn3C(C)C)C4)CC2)nn1 [Compound 86] | 1.1 | 6 | – | – |
| CCN(C(=O)c1cc(F)ccc1Oc1nncnc1N1CC2(CCN(CC3CCN(C(=O)NC4CC4)CC3)CC2)C1)C(C)C [Compound 26, N-cyclopropyl-4-((2-(6-(2-(ethyl(isopropyl)carbamoyl)-4-fluorophenoxy)-1,2,4-triazin-5-yl)-2,7-diazaspiro[3.5]nonan-7-yl)methyl)piperidine-1-carboxamide] | 0.9 | – | – | 7 |
| CCN(C(=O)c1cc(F)ccc1Oc1nncnc1N1CC2(CCN(CC3CCN(c4ncccc4C(N)=O)CC3)CC2)C1)C(C)C [Compound 54] | 15.8 | 21 | – | – |
